In US20160166631A1, “NUTRACEUTICAL COMBINATION FOR PREVENTION AND TREATMENT OF TYPE 2 DIABETES” (priority 2014, published 2016):

Test system: Type 2 diabetes patients
Experiment: Clinical trials: DiabetainC co-administered with Metformin or other anti-diabetes medications (Hb A1c, fasting blood glucose)
Type: in vivo, human
Experimental: Clinical trials have shown that “DiabetainC” supplements in accordance with this disclosure, when administered to Type 2 diabetes patients, lowers Hb A1c by an average of 1.7% when co-administered with Metformin, as compared with a 1.2% lowering of Hb A1c when Metformin is used by itself. This is a significant improvement. A 0.5% to 1% lowering of Hb A1c correlates with a 20% reduction in morbidity.
Clinical trials have shown an advantageous decrease in fasting blood glucose (FBG) of 72 mg/dL when co-administered with Metformin, as compared with a lowering of 48 mg/dL when Metformin is administered alone. […] These improvements are significant, as every 15 mg/dL to 40 mg/dL decrease in FBG reduces diabetes related heart diseases up to 50%.

For `CN(C)C(=N)N=C(N)N` [Metformin], the “lowering of fasting blood glucose (FBG)” value (Metformin administered alone) was 48 mg/dL and the “lowering of Hb A1c” value (Type 2 diabetes patients, Metformin used by itself) was 1.2%.
